The first test addresses T1, CYP4A (Homo sapiens, UniProt Q02928).
T1 construct: host or cells: bactosome, i.e. bacterial membrane preparation (own knowledge of the term)
T1 sequence (Q02928 5-519): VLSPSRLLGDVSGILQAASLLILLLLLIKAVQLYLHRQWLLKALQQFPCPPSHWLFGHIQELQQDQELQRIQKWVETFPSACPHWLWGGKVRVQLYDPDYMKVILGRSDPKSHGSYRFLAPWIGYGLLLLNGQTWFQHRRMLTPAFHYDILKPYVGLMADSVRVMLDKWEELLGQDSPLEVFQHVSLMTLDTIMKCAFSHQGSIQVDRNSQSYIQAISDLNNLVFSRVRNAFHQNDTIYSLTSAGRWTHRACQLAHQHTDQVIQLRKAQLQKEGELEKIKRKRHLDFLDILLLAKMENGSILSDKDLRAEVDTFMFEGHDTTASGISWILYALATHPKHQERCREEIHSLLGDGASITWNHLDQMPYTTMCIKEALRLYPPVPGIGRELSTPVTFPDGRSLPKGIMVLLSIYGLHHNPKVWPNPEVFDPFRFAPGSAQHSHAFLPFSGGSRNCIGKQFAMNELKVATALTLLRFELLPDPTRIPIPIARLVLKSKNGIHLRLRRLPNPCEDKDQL
Nature of the test: CYP4A enzyme assay (Luciferin-ME luminescence, CYP4A bactosome). Type of test: biochemical. Conditions: compound concentration 5 μM; 25%-50%; read-out: % Inhibition 25%-50%. In outline:
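CYP4A bactosome preincubated 15 min at room temperature with compound (5 μM) in 100 mM KPO4, 0.1% BSA, 1 mM DTT. Luciferin-ME (5 mM) plus NADPH regeneration system added, 30 min at room temperature, then detection reagent for 15 min. Inhibition derived from luminescence versus controls.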
As a reminder, the inhibition is the percentage by which the read-out fell short of the control. Turning to `O=C(C1CCCN(S(=O)(=O)c2ccc(O)cc2)C1)N1CCN(c2cc(C(F)(F)F)nc3ccccc23)CC1` (stereo not drawn) [Formula 68, (1-(4-hydroxyphenylsulfonyl)piperidin-3-yl) (4-(2-(trifluoromethyl)quinolin-4-yl)piperazin-1-yl) methanone], the inhibition at 5 µM was 25 to 50%.

In the case of `O=C(O)c1ccc(S(=O)(=O)N2CCCC(C(=O)N3CCN(c4ccnc5cc(Cl)ccc45)CC3)C2)cc1` (stereo not drawn) [Formula 98, 4-((3-(1-(7-chloroquinolin-4-yl)piperazine-1-carbonyl)piperidin-1-yl)sulfonyl)benzoic acid], the inhibition at 5 µM is 25 to 50%.

As to `CCc1ccc(S(=O)(=O)N2CCCC(C(=O)N3CCN(c4cc(C)nc5ccccc45)CC3)C2)cc1` (stereo not drawn) [Formula 23, (1-(4-ethylphenylsulfonyl)piperidin-3-yl) (4-(2-methylquinolin-4-yl)piperazin-1-yl) methanone], the inhibition at 5 µM fell in the range of 25 to 50%.

In the case of `Cc1cc(N2CCN(C(=O)C3CCCN(S(=O)(=O)c4ccccc4F)C3)CC2)c2ccccc2n1` (stereo not drawn) [Formula 33, (1-(2-fluorophenylsulfonyl)piperidin-3-yl) (4-(2-methylquinolin-4-yl)piperazin-1-yl) methanone], the inhibition at 5 µM lay within 25 to 50%.

For `Cc1ccc(S(=O)(=O)N2CCCC(C(=O)N3CCN(c4cc(C)nc5ccccc45)CC3)C2)cc1` (stereo not drawn) [Formula 20, (4-(2-methylquinolin-4-yl)piperazin-1-yl) (1-tosylpiperidin-3-yl) methanone], the inhibition at 5 µM was 25 to 50%.

As for `O=C(C1CCCN(S(=O)(=O)c2c(F)c(F)c(F)c(F)c2F)C1)N1CCN(c2cc(C(F)(F)F)nc3ccccc23)CC1` (stereo not drawn) [Formula 73, (1-(perfluorophenylsulfonyl)piperidin-3-yl) (4-(2-(trifluoromethyl)quinolin-4-yl)piperazin-1-yl) methanon], the inhibition at 5 µM is 25 to 50%.

Staying with this test, now noted: compound concentration 5 μM; 75% or more; read-out: % Inhibition 75% or more.
With `Cc1cc(N2CCN(C(=O)C3CCCN(S(=O)(=O)c4ccc(-c5cnc(C)nc5)cc4)C3)CC2)c2ccccc2n1` (stereo not drawn) [Formula 104, (1-((4-(2-methylpyrimidin-5-yl)phenyl)sulfonyl)piperidin-3-yl) (4-(2-methylquinolin-4-yl)piperazin-1-yl) methanone], the inhibition at 5 µM came out at 0%.

Regarding `O=C(C1CCCN(S(=O)(=O)c2ccc(-c3ccncc3)cc2)C1)N1CCN(c2ccnc3ccccc23)CC1` (stereo not drawn) [Formula 113, (1-(4-(pyridin-4-yl)phenylsulfonyl)piperidin-3-yl) (4-(quinolin-4-yl)piperazin-1-yl) methanone], the inhibition at 5 µM was no less than 75%.

As to `O=C(C1CCCN(S(=O)(=O)c2cccc([N+](=O)[O-])c2)C1)N1CCN(c2ccnc3cc(Cl)ccc23)CC1` (stereo not drawn) [Formula 6, (4-(7-chloroquinolin-4-yl)piperazin-1-yl) (1-((3-nitrophenyl)sulfonyl)piperidin-3-yl) methanone], the inhibition at 5 µM was no less than 75%.

Take `Cc1cc(N2CCN(C(=O)C3CCCN(S(=O)(=O)c4ccc(N(C)C)cc4)C3)CC2)c2ccccc2n1` (stereo not drawn) [Formula 31, (1-(4-(dimethylamino)phenylsulfonyl)piperidin-3-yl) (4-(2-methylquinolin-4-yl)piperazin-1-yl) methanone]: the inhibition at 5 µM was no less than 75%.

For the compound `O=C(C1CCCN(S(=O)(=O)c2ccc(-c3ccccc3)cc2)C1)N1CCN(c2ccnc3ccccc23)CC1` (stereo not drawn) [Formula 84, (4-(quinolin-4-yl)piperazin-1-yl) (1-(4-phenylbenzenesulfonyl)piperidin-3-yl) methanone], the inhibition at 5 µM was no less than 75%.

Turning to `CN(C)c1ccc(S(=O)(=O)N2CCC[C@H](C(=O)N3CCN(c4ccnc5cc(F)ccc45)CC3)C2)cc1`, the inhibition at 5 µM is no less than 75%.

In the case of `O=C(C1CCCN(S(=O)(=O)c2ccc(F)cc2)C1)N1CCN(c2ccnc3ccccc23)CC1` (stereo not drawn) [Formula 75, (1-(4-fluorophenylsulfonyl)piperidin-3-yl) (4-(quinolin-4-yl)piperazin-1-yl) methanone], the inhibition at 5 µM was no less than 75%.

`CCCCc1ccc(N=CNO)c(C)c1` [HET-0016, N-hydroxy-N′-(4-butyl-2-methylphenyl)-formamidine, reference compound]: the inhibition at 5 µM is no less than 75%.

With `CC(=O)c1ccc(S(=O)(=O)N2CCCC(C(=O)N3CCN(c4ccnc5cc(F)ccc45)CC3)C2)cc1` (stereo not drawn) [Formula 54, 1-(4-(3-(1-(7-fluoroquinolin-4-yl)piperazine-4-carbonyl)piperidin-1-ylsulfonyl)phenyl) ethanone], the inhibition at 5 µM is no less than 75%.

Turning to `CCN(CC)c1ccc(S(=O)(=O)N2CCCC(C(=O)N3CCN(c4ccnc5cc(F)ccc45)CC3)C2)cc1` (stereo not drawn) [Formula 52, (1-(4-(diethylamino)phenylsulfonyl)piperidin-3-yl) (4-(7-fluoroquinolin-4-yl)piperazin-1-yl) methanone], the inhibition at 5 µM was no less than 75%.

For `CC(=O)Nc1ccc(S(=O)(=O)N2CCC[C@@H](C(=O)N3CCN(c4ccnc5cc(F)ccc45)CC3)C2)cc1` [Formula 46, (R)—N-(4-(3-(1-(7-fluoroquinolin-4-yl)piperazine-4-carbonyl)piperidin-1-ylsulfonyl)phenyl) acetamide], the inhibition at 5 µM was no less than 75%.

As to `O=C(C1CCCN(S(=O)(=O)c2ccc(C(F)(F)F)cc2)C1)N1CCN(c2ccnc3cc(Cl)ccc23)CC1` (stereo not drawn) [Formula 7, (4-(7-chloroquinolin-4-yl)piperazin-1-yl) (1-((4-(trifluoromethyl)phenyl)sulfonyl)piperidin-3-yl) methanone], the inhibition at 5 µM is no less than 75%.

As for `O=C(C1CCCN(S(=O)(=O)c2ccc(O)cc2)C1)N1CCN(c2ccnc3cc(Cl)ccc23)CC1` (stereo not drawn) [Formula 5, (4-(7-chloroquinolin-4-yl)piperazin-1-yl) (1-((4-hydroxyphenyl)sulfonyl)piperidin-3-yl) methanone], the inhibition at 5 µM is no less than 75%.

Take `COc1cccc(S(=O)(=O)N2CCCC(C(=O)N3CCN(c4ccnc5ccccc45)CC3)C2)c1` (stereo not drawn) [Formula 86, (1-(3-methoxyphenylsulfonyl)piperidin-3-yl) (4-(quinolin-4-yl)piperazin-1-yl) methanone]: the inhibition at 5 µM was no less than 75%.

In the case of `O=C(C1CCCN(S(=O)(=O)c2cccc([N+](=O)[O-])c2)C1)N1CCN(c2ccnc3cc(F)ccc23)CC1` (stereo not drawn) [Formula 51, (4-(7-fluoroquinolin-4-yl)piperazin-1-yl) (1-(3-nitrophenylsulfonyl)piperidin-3-yl) methanone], the inhibition at 5 µM is no less than 75%.

Still in this test, the particulars now being: compound concentration 5 μM; '50%-75%'; read-out: % Inhibition 50%-75%.
With `Cc1cc(N2CCN(C(=O)C3CCCN(S(=O)(=O)c4ccc(C(F)(F)F)cc4)C3)CC2)c2ccccc2n1` (stereo not drawn) [Formula 26, (4-(2-methylquinolin-4-yl)piperazin-1-yl) (1-(4-(trifluoromethyl)phenylsulfonyl)piperidin-3-yl) methanone], the inhibition at 5 µM was 50 to 75%.

Take `O=C(C1CCCN(S(=O)(=O)c2cccc(F)c2)C1)N1CCN(c2ccnc3cc(Cl)ccc23)CC1` (stereo not drawn) [Formula 8, (4-(7-chloroquinolin-4-yl)piperazin-1-yl) (1-((3-fluorophenyl)sulfonyl)piperidin-3-yl) methanone]: the inhibition at 5 µM lay within 50 to 75%.

The same test, now with this note: compound concentration 5 μM; mark in column '25% or less'; read-out: % Inhibition 25% or less.
Turning to `Cc1cc(N2CCN(C(=O)C3CCCN(S(=O)(=O)c4ccc(C(=O)O)cc4)C3)CC2)c2ccccc2n1` (stereo not drawn) [Formula 100, 4-(3-(1-(2-methylquinolin-4-yl)piperazine-4-carbonyl)piperidin-1-ylsulfonyl)benzoic acid], the inhibition at 5 µM was no more than 25%.

Source of the values: US12479821B2 (MBD CO., LTD., priority 2019, dated 2025).
